{"source": "patent US20150313862A1", "about": "“\"Pharmaceutical composition for reducing the trimethylamine N-oxide level\"” (Latvian Institute of Organic Synthesis, priority 2012, published 2015)", "key": {"[1]": {"conditions": "cited from earlier work"}, "[2]": {"tested_on": "TMANO", "assay": "TMANO concentration in blood plasma of healthy volunteers on a TMANO source rich diet (UPLC-MS/MS)", "format": "in vivo, human", "conditions": "for TMANO concentration in study participant's blood plasma: healthy volunteers (n=8), after 7 days TMANO source rich diet (150 g fish/day) with oral Meldonium 500 mg twice a day, mean ± SEM, diet alone 81.5 ± 8.6, baseline 4.9 ± 1.3, dihydrate", "experimental": "(§1) Eight healthy volunteers were involved in the study, 4 women and 4 men. The study was conducted in accordance with the Declaration of Helsinki, and with bioethical norms approved by the Central Committee of Medical Ethics. All study participants have signed informed consent forms. Exclusion criteria for participation in the study were: the use of dietary supplements, smoking, pregnancy and alcohol addiction. At the study beginning information about the participant's age, medication use, height and weight was recorded.\n(§2) Then, a venous blood sample and evening and morning urine samples were collected from the study participants. At the first stage of experiment, all participants received 150 grams of fish for lunch, once a day, during 7 days, which served as a source of TMANO increased formation in the body (W. J. Dyer. Amines in Fish Muscle. VI. Trimethylamine Oxide Content of Fish and Marine Invertebrates, Journal of the Fisheries Research Board of Canada, 8c(5): 314-324, 10.1139/f50-020, 1952).\nDuring the next stage of experiment, to determine the effect of Meldonium on TMANO concentration in blood plasma and urine, in addition to trimethylamine-rich food source, a pharmaceutical composition containing 500 mg of Meldonium was administered to each study participant during 7 days, twice a day (morning and evening). […]\n(§3) TMANO concentration in plasma and urine samples was determined by ultrahigh performance liquid chromatography-tandem mass spectrometry method. […] TMANO detection and quantification was performed using Quattro Micro™ spectrometer (Micromass) in an ion reaction monitoring (TMANO ion transition m/z75.8>m/z58.3, IS ion transition m/z175.4>m/z86.0) positive electrospraying mode (cone voltage 26V, collision energy 14 eV, collision gas—argon). […]\nTMANO concentration in the sample was calculated using the linear relationship TMANO peak area/IS peak area—TMANO concentration using the data processing software QuanLynx V4.1 (Waters). […]"}, "[3]": {"tested_on": "TMANO", "assay": "Total amount of TMANO excreted with urine during 7 days, healthy volunteers on a TMANO source rich diet (UPLC-MS/MS, creatinine by Jaffe method)", "format": "in vivo, human", "conditions": "for Total excreted with urine TMANO amount during 7 days: healthy volunteers (n=8), 7 days TMANO source rich diet with oral Meldonium 1 g/day, area under the curve, mean ± SEM, diet alone 18.2 ± 2.2, baseline 2.8 ± 0.6, dihydrate", "experimental": "as §1\nas §2, with “1952). […]” for “1952).”\nas §3\nTMANO concentration in the sample was calculated using the linear relationship TMANO peak area/IS peak area—TMANO concentration using the data processing software QuanLynx V4.1 (Waters).\nCreatinine concentration was calculated by slightly modified Jaffe method (Jaffe M. Ueber die Niederschlag, welchen Pikrinsaure in normalem Ham erzeugt and uber eine neue Reaction des Kreatinins. Z physiol Chem 1886; 10: 391-400). […] After 10 min of incubation at room temperature the absorbance was measured at 492 nm with a μQuant™ multiwell plate […] spectrophotometer (Biotek Instruments, USA). […]"}}, "note": "Marks after values point to notes of the source that are not given here.", "data": [{"smiles": "C[N+](C)(C)NCCC(=O)[O-]", "note": "[Meldonium, 3-(2,2,2-trimethyhydrazinium)propionate dihydrate]", "values": [{"measurement": "Solubility in water", "setting": "[1]", "value": "easily soluble in water"}, {"measurement": "Reduction of TMANO plasma concentration", "setting": "[2]; 7 days oral Meldonium 500 mg twice a day with TMANO-rich food, compared with TMANO level before Meldonium use, statistically significant", "value": 47, "unit": "%"}, {"measurement": "TMANO concentration in study participant's blood plasma", "setting": "[2]", "value": "43.0 ± 3.8", "unit": "nmol/mL"}, {"measurement": "TMANO concentration in study participant's blood plasma", "setting": "[2]; listed as TMANO + Meldonium", "value": "43.0 ± 3.8*^,# nmol/ml"}, {"measurement": "Increase of urine excreted TMANO amount", "setting": "[3]; 7 days oral Meldonium 500 mg twice a day with TMANO-rich food, versus before Meldonium use, statistically significant", "value": "about 25%"}, {"measurement": "Total excreted with urine TMANO amount during 7 days", "setting": "[3]", "value": "24.3±1.5", "unit": "μmol/mg creatinine *7 d"}, {"measurement": "Total excreted with urine TMANO amount during 7 days", "setting": "[3]; listed as TMANO + Meldonium", "value": "24.3 ± 1.5*^,# μmol/mg creatinine *7 d"}]}]}
